Results: paper PMC9851200, “Multiparameter phenotypic screening for endogenous TFEB and TFE3 translocation identifies novel chemical series modulating lysosome function” (Autophagy, 2022)

What was measured:
Type in all cases: binding
[1] = molecular target: kinases (KINOMEscan panel) (Homo sapiens, UniProt P10721, D816V); conditions: kinase KIT(D816V); NEW KINOMEscan
[2] = molecular target: kinases (KINOMEscan panel) (Homo sapiens, UniProt P08581, Y1235D); conditions: kinase MET(Y1235D); NEW KINOMEscan
[3] = molecular target: kinases (KINOMEscan panel) (Homo sapiens, UniProt Q9BWU1); conditions: kinase CDK19; NEW KINOMEscan
[4] = molecular target: kinases (KINOMEscan panel) (Homo sapiens, UniProt P49336); conditions: CDK8; NEW KINOMEscan
[5] = molecular target: T1, kinases (KINOMEscan panel) (Homo sapiens, UniProt Q9UL54); conditions: kinase TAOK2; NEW KINOMEscan
T1 sequence (Q9UL54 1-1235): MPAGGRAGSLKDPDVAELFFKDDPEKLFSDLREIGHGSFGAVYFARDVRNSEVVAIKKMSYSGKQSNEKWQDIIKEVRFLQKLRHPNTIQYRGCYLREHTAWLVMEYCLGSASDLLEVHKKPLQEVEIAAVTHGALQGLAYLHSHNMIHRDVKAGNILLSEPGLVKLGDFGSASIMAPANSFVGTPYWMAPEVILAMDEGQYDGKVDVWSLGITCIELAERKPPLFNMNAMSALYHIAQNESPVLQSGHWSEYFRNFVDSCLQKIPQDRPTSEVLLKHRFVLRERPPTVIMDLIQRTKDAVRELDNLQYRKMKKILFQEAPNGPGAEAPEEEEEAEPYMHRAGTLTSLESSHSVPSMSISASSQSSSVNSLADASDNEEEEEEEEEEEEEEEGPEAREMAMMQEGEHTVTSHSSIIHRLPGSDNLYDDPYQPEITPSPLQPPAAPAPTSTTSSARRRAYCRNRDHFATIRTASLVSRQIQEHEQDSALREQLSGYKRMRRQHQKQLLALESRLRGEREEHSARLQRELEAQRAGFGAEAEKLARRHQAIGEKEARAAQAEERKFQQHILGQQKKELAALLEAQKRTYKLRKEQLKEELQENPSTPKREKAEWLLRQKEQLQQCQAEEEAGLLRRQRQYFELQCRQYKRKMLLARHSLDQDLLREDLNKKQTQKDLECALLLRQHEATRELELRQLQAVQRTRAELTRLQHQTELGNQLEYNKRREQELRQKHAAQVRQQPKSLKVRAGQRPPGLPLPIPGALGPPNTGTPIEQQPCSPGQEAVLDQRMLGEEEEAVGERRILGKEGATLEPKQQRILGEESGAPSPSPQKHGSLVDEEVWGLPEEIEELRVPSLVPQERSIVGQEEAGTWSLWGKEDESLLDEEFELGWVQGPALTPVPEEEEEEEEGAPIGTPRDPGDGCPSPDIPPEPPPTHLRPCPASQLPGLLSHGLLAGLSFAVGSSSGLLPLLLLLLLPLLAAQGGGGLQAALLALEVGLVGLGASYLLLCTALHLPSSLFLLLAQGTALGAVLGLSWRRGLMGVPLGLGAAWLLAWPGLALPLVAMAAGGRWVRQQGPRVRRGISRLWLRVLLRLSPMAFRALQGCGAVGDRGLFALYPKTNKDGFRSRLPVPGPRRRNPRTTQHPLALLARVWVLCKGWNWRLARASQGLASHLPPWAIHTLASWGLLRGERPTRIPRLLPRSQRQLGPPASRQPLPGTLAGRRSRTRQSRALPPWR

[6] = molecular target: kinases (KINOMEscan panel) (Homo sapiens, UniProt P00533, T790M); conditions: kinase EGFR(T790M); NEW KINOMEscan
[7] = molecular target: kinases (KINOMEscan panel) (Homo sapiens, UniProt P00519, F317I); conditions: NEW KINOMEscan; for KINOMEscan ABL1(F317I)-phosphorylated: kinase ABL1(F317I)-phosphorylated
[8] = molecular target: T2, kinases (KINOMEscan panel) (Homo sapiens, UniProt P42681); conditions: kinase TXK; NEW KINOMEscan
T2 sequence (P42681 1-527): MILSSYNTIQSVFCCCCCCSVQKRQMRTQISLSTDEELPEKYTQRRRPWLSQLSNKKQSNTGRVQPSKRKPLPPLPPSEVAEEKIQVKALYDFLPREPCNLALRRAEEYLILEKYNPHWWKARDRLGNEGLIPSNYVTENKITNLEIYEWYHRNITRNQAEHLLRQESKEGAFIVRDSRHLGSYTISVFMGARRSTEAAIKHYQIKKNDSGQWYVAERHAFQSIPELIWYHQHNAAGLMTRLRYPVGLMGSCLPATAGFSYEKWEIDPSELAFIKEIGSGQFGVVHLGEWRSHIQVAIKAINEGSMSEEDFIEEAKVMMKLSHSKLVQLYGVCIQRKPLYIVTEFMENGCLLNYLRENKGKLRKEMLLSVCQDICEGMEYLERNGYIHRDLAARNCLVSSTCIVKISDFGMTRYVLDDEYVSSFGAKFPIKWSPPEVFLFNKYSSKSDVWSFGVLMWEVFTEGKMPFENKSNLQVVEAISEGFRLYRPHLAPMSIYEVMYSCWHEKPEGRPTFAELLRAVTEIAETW

[9] = molecular target: kinases (KINOMEscan panel) (Homo sapiens, UniProt P00519, F317L); conditions: NEW KINOMEscan; for KINOMEscan ABL1(F317L)-phosphorylated: kinase ABL1(F317L)-phosphorylated
[10] = molecular target: kinases (KINOMEscan panel) (Homo sapiens, UniProt Q13557); conditions: kinase CAMK2D; NEW KINOMEscan
Chain of kinases (KINOMEscan panel) (Homo sapiens, UniProt Q13557) (Q13557 whole entry): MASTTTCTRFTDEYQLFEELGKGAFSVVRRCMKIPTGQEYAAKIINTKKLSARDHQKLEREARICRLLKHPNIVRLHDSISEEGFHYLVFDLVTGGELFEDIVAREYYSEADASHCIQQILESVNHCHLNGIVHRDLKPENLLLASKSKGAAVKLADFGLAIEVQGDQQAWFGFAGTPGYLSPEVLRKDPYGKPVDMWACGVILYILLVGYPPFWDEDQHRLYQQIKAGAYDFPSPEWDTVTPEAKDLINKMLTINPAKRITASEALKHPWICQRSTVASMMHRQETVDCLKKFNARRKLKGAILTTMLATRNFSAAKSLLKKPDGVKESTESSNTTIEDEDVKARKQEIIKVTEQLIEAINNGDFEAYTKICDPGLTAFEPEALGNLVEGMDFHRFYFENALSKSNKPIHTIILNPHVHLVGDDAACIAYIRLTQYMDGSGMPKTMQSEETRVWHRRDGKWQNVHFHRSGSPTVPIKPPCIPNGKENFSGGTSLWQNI

Chain of kinases (KINOMEscan panel) (Homo sapiens, UniProt P00519, F317L) (P00519 whole entry F317L): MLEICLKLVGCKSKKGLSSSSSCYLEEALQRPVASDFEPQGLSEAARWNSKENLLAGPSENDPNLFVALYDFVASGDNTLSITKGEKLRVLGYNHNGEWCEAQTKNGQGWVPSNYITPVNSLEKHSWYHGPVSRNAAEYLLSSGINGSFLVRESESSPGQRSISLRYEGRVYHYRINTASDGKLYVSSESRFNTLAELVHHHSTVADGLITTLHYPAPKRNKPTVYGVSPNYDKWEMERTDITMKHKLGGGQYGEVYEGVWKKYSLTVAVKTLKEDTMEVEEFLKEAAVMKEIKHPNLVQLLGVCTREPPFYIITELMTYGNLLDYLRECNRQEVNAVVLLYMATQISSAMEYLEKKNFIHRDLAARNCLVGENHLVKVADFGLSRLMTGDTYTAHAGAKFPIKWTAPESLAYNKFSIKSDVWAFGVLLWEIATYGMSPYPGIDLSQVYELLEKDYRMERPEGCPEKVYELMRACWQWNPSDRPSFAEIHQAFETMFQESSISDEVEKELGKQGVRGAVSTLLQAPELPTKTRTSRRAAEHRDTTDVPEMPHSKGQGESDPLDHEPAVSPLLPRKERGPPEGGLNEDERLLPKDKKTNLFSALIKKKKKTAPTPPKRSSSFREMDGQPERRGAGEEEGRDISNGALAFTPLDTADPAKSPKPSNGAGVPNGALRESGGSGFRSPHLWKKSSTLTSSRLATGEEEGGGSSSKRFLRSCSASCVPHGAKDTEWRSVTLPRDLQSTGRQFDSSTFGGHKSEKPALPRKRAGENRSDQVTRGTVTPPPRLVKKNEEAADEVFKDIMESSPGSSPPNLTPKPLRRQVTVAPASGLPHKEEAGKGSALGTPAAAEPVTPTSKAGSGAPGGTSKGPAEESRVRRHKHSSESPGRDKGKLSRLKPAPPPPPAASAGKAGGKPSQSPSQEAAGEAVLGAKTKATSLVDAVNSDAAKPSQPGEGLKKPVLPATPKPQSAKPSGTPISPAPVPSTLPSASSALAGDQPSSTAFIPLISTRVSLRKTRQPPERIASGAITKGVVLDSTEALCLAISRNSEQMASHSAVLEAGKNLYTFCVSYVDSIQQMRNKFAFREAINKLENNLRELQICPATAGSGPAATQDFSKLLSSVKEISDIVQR
Chain of kinases (KINOMEscan panel) (Homo sapiens, UniProt P00519, F317I) (P00519 whole entry F317I): as the sequence (P00519 whole entry F317L) above, with L317I counted along it
Chain of kinases (KINOMEscan panel) (Homo sapiens, UniProt P00533, T790M) (P00533 25-1210 T790M): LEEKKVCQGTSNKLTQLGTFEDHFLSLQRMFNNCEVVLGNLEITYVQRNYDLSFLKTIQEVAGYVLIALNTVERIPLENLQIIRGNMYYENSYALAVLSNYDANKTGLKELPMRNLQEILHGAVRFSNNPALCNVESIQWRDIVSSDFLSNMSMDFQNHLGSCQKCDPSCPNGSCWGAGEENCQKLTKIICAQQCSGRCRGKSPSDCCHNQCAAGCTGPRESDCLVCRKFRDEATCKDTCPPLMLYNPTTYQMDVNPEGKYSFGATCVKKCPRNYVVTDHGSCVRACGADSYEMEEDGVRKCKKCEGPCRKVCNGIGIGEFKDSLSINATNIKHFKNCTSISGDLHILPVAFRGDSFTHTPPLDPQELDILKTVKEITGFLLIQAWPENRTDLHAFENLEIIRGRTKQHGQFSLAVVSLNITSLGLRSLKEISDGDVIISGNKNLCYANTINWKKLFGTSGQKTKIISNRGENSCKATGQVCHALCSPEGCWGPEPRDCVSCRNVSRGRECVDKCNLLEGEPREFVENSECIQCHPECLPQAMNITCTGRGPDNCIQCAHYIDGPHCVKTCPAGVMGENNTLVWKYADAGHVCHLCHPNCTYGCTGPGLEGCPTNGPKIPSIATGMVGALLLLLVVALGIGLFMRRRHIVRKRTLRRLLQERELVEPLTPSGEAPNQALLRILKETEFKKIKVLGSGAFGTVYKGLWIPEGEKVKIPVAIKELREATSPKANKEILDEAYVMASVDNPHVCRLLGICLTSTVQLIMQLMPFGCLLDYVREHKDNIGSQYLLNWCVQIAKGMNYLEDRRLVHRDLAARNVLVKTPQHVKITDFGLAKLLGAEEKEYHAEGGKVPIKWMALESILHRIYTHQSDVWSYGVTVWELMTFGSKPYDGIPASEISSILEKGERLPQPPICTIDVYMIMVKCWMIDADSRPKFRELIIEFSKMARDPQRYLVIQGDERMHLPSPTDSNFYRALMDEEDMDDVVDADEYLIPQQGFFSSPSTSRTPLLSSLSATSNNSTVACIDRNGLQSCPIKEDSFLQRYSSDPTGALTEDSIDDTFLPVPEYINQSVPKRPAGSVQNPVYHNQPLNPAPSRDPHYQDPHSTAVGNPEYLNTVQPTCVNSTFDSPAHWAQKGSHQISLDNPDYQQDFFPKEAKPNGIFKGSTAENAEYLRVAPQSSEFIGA
Chain of kinases (KINOMEscan panel) (Homo sapiens, UniProt P49336) (P49336 whole entry): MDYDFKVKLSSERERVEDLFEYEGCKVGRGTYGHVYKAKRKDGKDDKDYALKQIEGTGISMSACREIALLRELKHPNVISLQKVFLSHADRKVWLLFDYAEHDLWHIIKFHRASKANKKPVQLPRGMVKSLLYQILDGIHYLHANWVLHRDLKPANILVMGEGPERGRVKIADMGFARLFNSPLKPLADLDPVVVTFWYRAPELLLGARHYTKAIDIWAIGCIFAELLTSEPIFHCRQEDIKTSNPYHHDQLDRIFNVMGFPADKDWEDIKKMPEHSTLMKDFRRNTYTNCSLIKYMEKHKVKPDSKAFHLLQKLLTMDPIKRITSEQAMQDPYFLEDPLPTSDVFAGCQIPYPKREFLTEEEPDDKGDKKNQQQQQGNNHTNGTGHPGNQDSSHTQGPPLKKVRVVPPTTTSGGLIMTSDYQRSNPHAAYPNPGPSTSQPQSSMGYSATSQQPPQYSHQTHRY
Chain of kinases (KINOMEscan panel) (Homo sapiens, UniProt P10721, D816V) (P10721 26-976 D816V): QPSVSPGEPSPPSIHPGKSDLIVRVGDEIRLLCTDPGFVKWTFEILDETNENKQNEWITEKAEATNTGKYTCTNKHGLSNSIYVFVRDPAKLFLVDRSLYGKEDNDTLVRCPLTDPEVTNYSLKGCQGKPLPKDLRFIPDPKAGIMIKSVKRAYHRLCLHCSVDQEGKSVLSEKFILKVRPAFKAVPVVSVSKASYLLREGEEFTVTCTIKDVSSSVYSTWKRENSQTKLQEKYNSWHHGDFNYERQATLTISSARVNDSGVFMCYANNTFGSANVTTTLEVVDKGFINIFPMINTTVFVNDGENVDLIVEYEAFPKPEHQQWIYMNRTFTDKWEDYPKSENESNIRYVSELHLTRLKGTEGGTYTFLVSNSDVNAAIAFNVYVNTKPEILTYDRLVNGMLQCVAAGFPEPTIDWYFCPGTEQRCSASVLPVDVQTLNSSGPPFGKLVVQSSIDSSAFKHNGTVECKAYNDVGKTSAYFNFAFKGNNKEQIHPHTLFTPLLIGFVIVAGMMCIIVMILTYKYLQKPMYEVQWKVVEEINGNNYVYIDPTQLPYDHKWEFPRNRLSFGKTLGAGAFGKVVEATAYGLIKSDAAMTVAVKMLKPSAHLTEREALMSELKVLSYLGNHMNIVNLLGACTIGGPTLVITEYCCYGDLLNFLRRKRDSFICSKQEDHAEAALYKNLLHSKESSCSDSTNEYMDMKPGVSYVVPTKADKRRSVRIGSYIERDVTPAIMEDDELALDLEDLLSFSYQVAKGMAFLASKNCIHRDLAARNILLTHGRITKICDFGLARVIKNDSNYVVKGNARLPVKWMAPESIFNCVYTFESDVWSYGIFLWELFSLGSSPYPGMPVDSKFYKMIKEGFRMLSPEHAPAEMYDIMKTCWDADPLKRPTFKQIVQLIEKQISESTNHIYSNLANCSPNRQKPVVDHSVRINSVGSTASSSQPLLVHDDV
Chain of kinases (KINOMEscan panel) (Homo sapiens, UniProt Q9BWU1) (Q9BWU1 whole entry): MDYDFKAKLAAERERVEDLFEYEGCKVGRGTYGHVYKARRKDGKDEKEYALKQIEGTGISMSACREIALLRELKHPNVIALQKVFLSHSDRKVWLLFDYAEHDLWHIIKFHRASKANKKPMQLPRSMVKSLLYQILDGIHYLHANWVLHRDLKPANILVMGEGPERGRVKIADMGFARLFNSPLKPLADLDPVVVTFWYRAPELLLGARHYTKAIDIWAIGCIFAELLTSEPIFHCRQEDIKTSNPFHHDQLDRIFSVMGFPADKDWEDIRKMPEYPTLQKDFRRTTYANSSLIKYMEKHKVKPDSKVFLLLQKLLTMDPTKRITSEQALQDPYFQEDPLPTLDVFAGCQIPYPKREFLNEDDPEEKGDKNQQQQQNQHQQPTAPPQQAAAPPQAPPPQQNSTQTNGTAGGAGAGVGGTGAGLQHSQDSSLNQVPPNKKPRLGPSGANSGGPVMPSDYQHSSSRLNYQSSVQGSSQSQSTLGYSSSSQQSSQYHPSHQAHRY

| SMILES | KINOMEscan KIT(D816V) [1] | KINOMEscan MET(Y1235D) [2] | KINOMEscan CDK19 [3] | KINOMEscan CDK8 [4] | KINOMEscan TAOK2 [5] | KINOMEscan EGFR(T790M) [6] | KINOMEscan ABL1(F317I)-nonphosphorylated [7] | KINOMEscan ABL1(F317I)-phosphorylated [7] | KINOMEscan TXK [8] | KINOMEscan ABL1(F317L)-nonphosphorylated [9] | KINOMEscan ABL1(F317L)-phosphorylated [9] | KINOMEscan CAMK2D [10] |
| --- | --- | --- | --- | --- | --- | --- | --- | --- | --- | --- | --- | --- |
| Cc1cccc(-c2nc(Nc3ccc4nn(C)cc4c3)c3ccccc3n2)n1 [NK167] | 0 | 7 | 24 | 19 | 19 | 0 | 0 | 0 | 3 | 30 | 0 | 0 |
| Cc1cccc(-c2nc(N(C)c3ccc4ncsc4c3)c3ccccc3n2)n1 [NK-161] | 7 | 1 | 4 | 12 | 20 | 0 | 9 | 0 | 0 | 18 | 0 | 0 |
